Measured values: patent US12595483B2, “Treatment of tumors with miRNA targeting CDK4/CDK6” (Institute For Cancer Research, priority 2017, dated 2026)

Columns and labels:
Assay type in all cases: cell-based, human
[1] = system: panel of CRC cell lines (HCT-116, RKO, HT-29, SW-480); experiment: miRNA-Irinotecan synergy by cell viability (CellTiter-Glo); conditions: 25 nM (HCT-116) or 50 nM mimic, Irinotecan added 16 hours post-transfection, read 72 hours; all four cell lines
Description: (§1) Cell Proliferation assays: Five thousand to ten thousand cells were reverse transfected with either scramble duplex or miRNA to a net concentration of 50 nM and plated in 96-well plate. Cell viability was measured 72 hours post-transfection using CellTiter-Glo® Luminescent Cell Viability Assay (Promega). Percent cell viability was calculated by normalizing the luminescence signal to scramble duplex wells. All transfections were performed in triplicates and reported as % Viability±SEM.
(§2) A panel of CRC cell lines was reverse transfected with 25 nM (HCT-116) or 50 nM of SCR or indicated miRNA mimics. At 16 hours post-transfection, Irinotecan (see, FIG. 5A) or 5-FU (see, FIG. 5B) at indicated doses were added. Synergy of miRNA-drug was measured by cell viability 72 hours post-transfection using CellTiter-Glo assay. The effect on apoptosis and cell cycle markers with miRNA alone or combination were assessed using 50 nM of miRNA mimic and […] (HT-29 and SW-480) or 2.5 μM Irinotecan (HCT-116 and RKO) by western blot. For 5-FU, 384 μM (HT-29 and SW-480) and 25 μM (HCT-116 and RKO) were used. Representative western blots are shown in FIG. 5C and FIG. 5D, respectively.

CDK6 = CDK6 protein (western blot) and RNA (qRT-PCR) expression in CRC cell lines transfected with miRNA mimics; conditions: 50 nM miRNA mimic vs scrambled duplex, 72 hours; HCT-116, RKO, HT-29, SW-480
Description: (§3) Transfection of miRNA mimics, siRNA and plasmid constructs: All miRNA mimics and siRNA transfections were performed by reverse transfection using Lipofectamine RNAiMAX (Life technologies, Grand Island, NY). 80 nM siRNA was used in all experiments for HT-29, RKO and SW-480 cell lines. 40 nM siRNA was used for HCT-116 cells. miRNA mimics were transfected at concentrations of either 25 nM, 50 nM, or 100 nM, as indicated in respective assays. CDK4-Luciferase vector was transfected in HCT-116 cells using Lipofectamine 3000 (Life technologies, Grand Island, NY) and stable cells were selected using G418 antibiotic (500 μg/mL).
(§4) Quantitative RT-PCR (qRT-PCR): Total RNA, which includes miRNA, was isolated using the Quick-RNA™ MiniPrep kit (Zymo Research, Irvine, CA). One μg of total RNA from each sample was subjected to cDNA synthesis using SuperScript® III Reverse Transcriptase kit (Life Technologies, Grand Island, NY), for detection of CDK4, CDK6, and housekeeping genes. […] The relative expression of the reported genes and miRNAs was determined using real-time PCR performed on Applied Biosystems 7900HT Fast Real-Time PCR system. […] Each cDNA sample was amplified using Power SYBR Green (Applied Biosystems, CA) and miRNA components were quantified using TaqMan® Universal Master Mix II, no UNG (Applied Biosystems, CA). […]

phosphorylated Rb (S795) = experiment: Western blot of cell cycle markers; conditions: 100 nM miRNA mimics, 72 hours post-transfection; all four cell lines
Description: (§5) Western blot: Western blotting was performed by routine and well known procedures. The following antibodies were used: CDK4 (Santa Cruz Biotechnology, sc-260), CDK6 (CST, D4S8S), CDK1 (Santa Cruz Biotechnology, sc-54), Cyclin-D1 (CST, 92G2), p-Rb (S795) (CST, 9301S), Total Rb, BCLxL (CST, 2764S), PARP (CST, 9542), p53-DO1 (Santa Cruz Biotechnology, sc-126), p21 (Calbiochem, OP64), and β-actin (Sigma, A5441).
(§6) Referring in particular to FIGS. 3A, 3B, 3C, 3D, and 3E, data is presented showing that restoring expression of miR-6883-5p and miR-149* results in G1-arrest and cell death in CRC cell lines. […] The effects on cell viability were measured 72 hours post-transfection using CellTiter-Glo assay. Referring to FIG. 3B, the effects of the miRNA mimics on long-term cell proliferation of CRC cell lines was assessed by colony formation assays performed in 6-well plates. […] The effects on cell cycle markers (see, FIG. 3C) and markers of apoptosis (see, FIG. 3D) were evaluated by western blot 72 hours post-transfection. […] Referring to FIG. 3E, cell cycle profiles and apoptotic cells were assessed in three CRC cell lines by reverse transfecting with SCR or 50 nM (HCT-116 and HT-29) or 100 nM (RKO) miRNA mimics. 72 hours post-transfection, cells were fixed, stained with PI, and analyzed by FACS. […]

p21 = experiment: Western blot of p21 (cell cycle arrest); conditions: 50 nM mimic; 5-FU 384 μM (HT-29 and SW-480) or 25 μM (HCT-116 and RKO)
Description: as §5, §2

CDK4 = CDK4 protein (western blot) and RNA (qRT-PCR) expression in CRC cell lines transfected with miRNA mimics; conditions: 50 nM miRNA mimic vs scrambled duplex, 72 hours; HCT-116, RKO, HT-29, SW-480
Description: as §3, §4

[2] = system: p53 mutant cell lines HT-29 and SW-480; experiment: miRNA-5-FU combination by cell viability (CellTiter-Glo); conditions: 50 nM mimic, 5-FU added 16 hours post-transfection, read 72 hours
Description: as §1, §2

CDK4 3′UTR = experiment: CDK4-Luciferase (pMirtarget CDK4 3′UTR) reporter assay in stable HCT-116 cells; conditions: 48 hours; for direct binding to the 3′UTR region of CDK4: pMirtarget-CDK4-Luciferase vector, HCT-116, 50 nM mimic
Description: as §3
Luciferase assays: CDK4-Luciferase containing stable HCT-116 cells were reverse-transfected with either scramble duplex or 50 nM miRNA mimics. Luciferase signal was detected 48 hours post-transfection and Relative Luciferase Units (RLU) were calculated by normalizing luciferase signal per μg of protein per assay well. All transfections were performed in triplicates and reported as RLU units±SEM.
Referring in particular to FIGS. 2A, 2B, and 2C, data is presented showing that miR-6883-5p and miR-149* negatively regulate expression of […] and CDK6 in CRC cell lines. Referring to FIG. 2A, CDK4 and CDK6 protein levels were detected in a panel of CRC cell lines reverse transfected with 50 nM of miRNA mimics or scrambled duplex (SCR) for 72 hours. Referring to FIG. 2B, qRT-PCR was performed for CDK4 and CDK6 in SCR or miRNA mimics transfected in CRC cell lines (50 nM, 72 hours, n=3). *, ** and *** indicate p-value relative to SCR expression. Referring to FIG. 2C, HCT-116 cells stably selected with CDK4-Luciferase construct were reverse transfected with SCR or 50 nM of the indicated miRNA mimics for 48 hours. Measured luciferase activities were normalized per μg of protein for indicated samples and reported as RLU±SEM (n=3). * indicates p-value relative SCR RLU.

XIAP = experiment: Western blot of XIAP; conditions: 100 nM miRNA mimic, 72 hours
PARP = experiment: Western blot of markers of apoptosis (PARP cleavage); conditions: RKO and SW-480 cells; 100 nM miRNA mimics, 72 hours
Description: Referring to FIG. 3A, a panel of CRC cell lines was reverse transfected with 50 nM SCR or 50 nM of indicated miRNA mimics. […] All four CRC cell lines were reverse transfected with 100 nM SCR or indicated miRNA mimics. The effects on cell cycle markers (see, FIG. 3C) and markers of apoptosis (see, FIG. 3D) were evaluated by western blot 72 hours post-transfection. Representative western blots are shown (n=3).

BCLXL = experiment: Western blot of BCLXL; conditions: 100 nM miRNA mimic, 72 hours
Description: as §5, §6

hsa-miR-149-3p [miR-149*]
synergy with Irinotecan (cell viability) [1]: synergized with Irinotecan
CDK6 protein and RNA level (CDK6): more potent in reducing levels of CDK6
levels of phosphorylated Rb (S795) (phosphorylated Rb (S795)): reduced levels of phosphorylated Rb (S795)
cell cycle arrest as seen by p21 levels, single agent (p21): caused cell cycle arrest
CDK4 protein and RNA level (CDK4): no impact on CDK4
sensitivity to 5-FU (cell viability) [2]: increased the sensitivity of p53 mutant cell lines HT-29 and SW-480 to 5-FU
direct binding to the 3′UTR region of CDK4 (CDK4 3′UTR): directly bind to the 3′UTR region of CDK4

hsa-miR-6883-5p (AGGGAGGGUGUGGUAUGGAUGU; called a modified oligonucleotide, chemistry not given here; listed as Homo sapiens) [miRNA mimic purchased from Sigma-Aldrich (HMI2616)]
synergy with Irinotecan (cell viability) [1]: synergized with Irinotecan
XIAP level (XIAP): downregulated XIAP and BCLXL
CDK6 protein and RNA level (CDK6): targeted both CDK4 and CDK6 at both the protein and RNA level
apoptosis (PARP-cleavage) (PARP): most potent in inducing apoptosis
BCLXL level (BCLXL): downregulated XIAP and BCLXL
levels of phosphorylated Rb (S795) (phosphorylated Rb (S795)): reduced levels of phosphorylated Rb (S795)
CDK4 protein and RNA level (CDK4): targeted both CDK4 and CDK6 at both the protein and RNA level
sensitivity to 5-FU (cell viability) [2]: increased the sensitivity of p53 mutant cell lines HT-29 and SW-480 to 5-FU
luciferase signal (CDK4 3′UTR; HCT-116 CDK4-Luciferase stable cells, 50 nM mimic, compared to miR-206 and miR-149*): significantly reduced luciferase signal
direct binding to the 3′UTR region of CDK4 (CDK4 3′UTR): directly bind to the 3′UTR region of CDK4

O=c1[nH]cc(F)c(=O)[nH]1 [5-FU, 5-fluorouracil, reference compound]
cell cycle arrest as seen by p21 levels, single agent (p21): caused cell cycle arrest
